# pIC50: −log10 of the molar value. “Also recorded” adds a separate entry of the source.
# What was measured:
# [1] = tested on: human HeLa cells; experiment: Mammalian cytotoxicity, MTS viability; assay type: cell-based
# Protocol: (§1) Cytotoxicity of PSAC inhibitors was measured with human HeLa cells (ATCC # CLL-2) in 96-well plates at 4000 cells/well. Cultures were incubated with each inhibitor at 37° C. for 72 h in Minimal Essential Medium (Gibco/Invitrogen, Carlsbad, Calif.) supplemented with 10% fetal calf serum. Cell viability was quantified using the vital stain MTS [3-(4,5-dimethylthiazol-2-yl)-5-(3-carboxymethonyphenol)-2-(4-sulfophenyl)-2H-tetrazolium, inner salt], as described (Marshall et al., Growth Regul., 5: 69-84 (1995)). The reported CC50 value is the concentration of an inhibitor that reduces conversion of MTS to formazan by 50%.
# [2] = Mammalian cytotoxicity, MTS viability; assay type: cell-based, human; conditions: human, HeLa cells; 72 h, MTS; read-out: HeLa cell CC50
# Protocol: as §1
# [3] = tested on: P. falciparum; experiment: microbe, parasite or virus in culture; assay type: cell-based; conditions: for pIC50: Plasmodium falciparum, 72 h; for IC50 ratio: RPMI growth IC50 / PLM growth IC50
# [4] = tested on: PSAC; experiment: Transport inhibition assay, osmotic lysis of infected cells in sorbitol (Table 5); assay type: cell-based, P. falciparum
# [5] = tested on: PSAC; experiment: K0.5 for PSAC block, light-scattering osmotic lysis assay in sorbitol (Example 1); assay type: cell-based, P. falciparum; conditions: for pIC50: read-out: K0.5 for PSAC block, concentration producing 50% block of PSAC-mediated solute uptake; for K0.5 for PSAC block: concentration producing 50% block of PSAC-mediated solute uptake
# Text: The chemical inhibitors included:
# In this assay, increases in transmittance (% T, measured at 700 nm) correlated directly to lysis of infected RBCs and were plotted in arbitrary units. Uninfected RBCs lacked PSAC activity and had undetectably low sorbitol permeability.
# [6] = tested on: P. falciparum; experiment: In vitro parasite killing, SYBR Green I fluorescence assay in RPMI 1640 or PLM (Example 1); assay type: cell-based; conditions: for pIC50: Plasmodium falciparum, 72 h; for Ratio (RPMI/PLM): ratio of IC50 RPMI/PLM
# Protocol: In vitro parasite killing by PSAC inhibitors was quantified using a SYBR Green I-based fluorescence assay for parasite nucleic acid in 96-well format.
# Cultures were maintained for 3 days at 37° C. in 5% 02, 5% CO2 without media change. After this incubation, Sybr Green I was added in 20 mM Tris, 10 mM EDTA, 0.016% saponin, 1.6% triton X100.
# [7] = 37° C., read-out: Transport inhibition K0.5
# [8] = PSAC-limiting medium (PLM), 3 days, read-out: PLM IC50
# [9] = RPMI 1640 standard media, 3 days, read-out: RPMI IC50
Structure (SMILES),specificity (HeLa CC50/parasite PLM IC50) [1],CC50 at 72 h [2],pIC50 ([3]; read-out: PLM growth IC50),pIC50 ([3]; read-out: RPMI growth IC50),IC50 ratio [3],"pIC50 [4, 7]",also measured
O=C1Nc2cc(C(=O)N3CCN(c4ccccc4)CC3)ccc2Sc2ccccc21 [(3) (TP-52)],>530,> 100 µM,6.72,5.14,38,7.60,–
CCCCN(CC)C(=O)c1cc2cc3ccc(C)cc3nc2o1 [(24)],110,30 µM,6.57,4.64,114,7.06,–
COc1ccc2cc3cc(C(=O)N(C)C4CCCCC4)oc3nc2c1 [(25)],–,–,6.77,4.82,86,7.48,–
CCN(Cc1ccccc1)C(=O)c1ccc2c(c1)NC(=O)c1ccccc1S2 [(31)],>240,> 100 µM,6.39,5.33,15,7.08,–
COc1ccc(NC(=O)c2cc3cc4ccc(C)cc4nc3o2)cc1 [(280)],>430,> 100 µM,6.64,4.74,270,–,"pIC50 ([4]; read-out: Transport inhibition K0.5, 37° C.): 8.22"
Cc1ccc(C)c(N2CCN(S(=O)(=O)c3ccc(-c4ccc(=O)[nH]n4)s3)CC2)c1 [Compound of formula (1a)],–,–,–,–,–,–,"pIC50 [5]: 8.52; pIC50 [6, 8]: 8.64; pIC50 [6, 9]: 5.82; Ratio (RPMI/PLM) [6]: 800"
CCc1nn2c(=O)cc(CSc3nc4ccc(NC(=O)c5cccs5)cc4s3)nc2s1 [Compound of formula (2a)],–,–,–,–,–,–,"pIC50 [5]: 8.00; pIC50 [6, 8]: 6.52; pIC50 [6, 9]: < 4.52; Ratio (RPMI/PLM) [6]: >100"
CC1=Nc2ccc(C)cc2C1/C=C1/C(=N)N2N=C(S(=O)(=O)CC(C)C)SC2=NC1=O (centres unmarked) [Cpd 50],>50,> 100 µM,5.70,< 4.52,>15,7.09,–
O=C1N=C(N2CCCC2)S/C1=C/c1cccc(Cl)c1 [Cpd 80],–,–,6.77,4.90,130,7.36,–
Cc1ccc(C)c(N2CCN(S(=O)(=O)c3ccc(-c4ccc(=O)[nH]n4)s3)CC2)c1 [ISG-21],"43,000",86 µM,8.70,–,800,8.59,–
C[C@@H]1CC[C@H]2[C@@H](C)C(=O)O[C@@H]3O[C@@]4(C)CC[C@@H]1[C@]32OO4 [artemisinin],–,–,–,–,0.66,–,"K0.5 for PSAC block [5]: did not inhibit PSAC activity; K0.5 for PSAC block ([5]; listed as Artemisinin): inactive; pIC50 [6, 8]: 7.59; pIC50 [6, 9]: 7.74; Ratio (RPMI/PLM) [6]: 0.66; Transport inhibition K0.5 ([4]; 37° C.): do not inhibit PSAC-mediated solute uptake; also recorded: inactive"
"CCN(CC)CCCC(C)Nc1ccnc2cc(Cl)ccc12 (centres unmarked) [chloroquine, reference compound]",–,–,6.47,6.66,–,–,K0.5 for PSAC block [5]: did not inhibit PSAC activity; pIC50 ([6]; read-out: PLM IC50): 6.47; pIC50 ([6]; read-out: RPMI IC50): 6.66; Transport inhibition K0.5 ([4]; 37° C.): do not inhibit PSAC-mediated solute uptake; also recorded: inactive
"O=C1CN(/N=C/c2ccc(-c3ccc([N+](=O)[O-])cc3)o2)C(=O)N1 [dantrolene, reference compound]",–,–,5.42,4.38,18,5.92,–
"NS(=O)(=O)c1cc(C(=O)O)c(NCc2ccco2)cc1Cl [furosemide, reference compound]",–,–,4.68,< 3.70,–,–,–
OC(c1cc(C(F)(F)F)nc2c(C(F)(F)F)cccc12)C1CCCCN1 (centres unmarked) [mefloquine],–,–,–,–,0.66,–,"K0.5 for PSAC block [5]: did not inhibit PSAC activity; K0.5 for PSAC block ([5]; listed as Mefloquine): inactive; pIC50 [6, 8]: 7.48; pIC50 [6, 9]: 7.66; Ratio (RPMI/PLM) [6]: 0.66; Transport inhibition K0.5 ([4]; 37° C.): do not inhibit PSAC-mediated solute uptake; also recorded: inactive"

# Source: patent publication US12059418B2, “Plasmodial surface anion channel inhibitors for the treatment or prevention of malaria” (The United States of America, as represented by the …, priority 2011, dated 2024)
